Results as given in US9725465B2, “Biaryl acetamide compounds and methods of use thereof” (Ambit Biosciences Corporation, priority 2013, dated 2017).
pKd: −log10 of the molar value.

What was measured:
FLT3 kinase = FLT3 kinase (Homo sapiens (Human), UniProt P36888); assay: Competition binding assay (Kd), FLT3
KIT kinase = KIT kinase (Homo sapiens (Human), UniProt P10721); assay: Competition binding assay (Kd), KIT
Experimental: In certain embodiments, competition binding assays were performed as described in Fabian et al., Nature Biotechnology 2005, 23, 329-336.
Competition binding assays used herein were developed, validated and performed as described in Fabian et al., Nature Biotechnology 2005, 23, 329-336. Kinases were produced as fusions to T7 phage (See, Fabian et al. or WO04/015142) or alternatively, the kinases were expressed in HEK-293 cells and subsequently tagged with DNA for PCR detection (See, WO08/005,310). […] The liganded beads were blocked with excess biotin and washed with blocking buffer (SeaBlock (Pierce), 1% BSA, 0.05% Tween 20, 1 mM DTT) to remove unbound ligand and to reduce non-specific binding. […] Test compounds were prepared as 100× stocks in DMSO and diluted into the aqueous environment. Kds were determined using an eleven point threefold serial dilutions. DMSO or control compounds were was added to control assays lacking a test compound. […] The kinase concentration in the eluates was measured by quantitative PCR. […]

KIT kinase, sequence (P10721 26-976): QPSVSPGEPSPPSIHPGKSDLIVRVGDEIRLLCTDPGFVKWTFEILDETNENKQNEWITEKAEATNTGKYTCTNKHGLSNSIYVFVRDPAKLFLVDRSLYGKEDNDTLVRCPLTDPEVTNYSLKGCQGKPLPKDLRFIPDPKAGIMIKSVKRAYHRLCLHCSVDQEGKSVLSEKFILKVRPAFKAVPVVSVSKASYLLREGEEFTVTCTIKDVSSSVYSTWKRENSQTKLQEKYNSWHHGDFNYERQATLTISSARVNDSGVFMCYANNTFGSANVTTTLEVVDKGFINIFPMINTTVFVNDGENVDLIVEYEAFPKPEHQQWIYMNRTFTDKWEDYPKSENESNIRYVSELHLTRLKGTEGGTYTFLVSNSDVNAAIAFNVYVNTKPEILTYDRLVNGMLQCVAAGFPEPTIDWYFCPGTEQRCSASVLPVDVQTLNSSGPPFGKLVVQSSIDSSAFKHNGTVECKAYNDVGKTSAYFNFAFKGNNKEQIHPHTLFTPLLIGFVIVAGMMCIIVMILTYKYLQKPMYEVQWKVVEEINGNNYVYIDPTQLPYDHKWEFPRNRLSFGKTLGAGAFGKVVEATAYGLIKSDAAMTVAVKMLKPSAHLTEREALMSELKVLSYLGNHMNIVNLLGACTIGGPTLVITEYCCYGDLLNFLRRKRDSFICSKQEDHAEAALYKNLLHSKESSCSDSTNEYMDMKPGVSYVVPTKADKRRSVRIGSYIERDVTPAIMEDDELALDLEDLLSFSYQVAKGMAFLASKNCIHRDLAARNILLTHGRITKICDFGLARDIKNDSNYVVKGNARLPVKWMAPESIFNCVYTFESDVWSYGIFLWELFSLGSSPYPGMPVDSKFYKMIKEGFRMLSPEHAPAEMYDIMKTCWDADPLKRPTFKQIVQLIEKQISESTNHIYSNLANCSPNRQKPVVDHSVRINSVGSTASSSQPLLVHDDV
FLT3 kinase, sequence (P36888 27-993): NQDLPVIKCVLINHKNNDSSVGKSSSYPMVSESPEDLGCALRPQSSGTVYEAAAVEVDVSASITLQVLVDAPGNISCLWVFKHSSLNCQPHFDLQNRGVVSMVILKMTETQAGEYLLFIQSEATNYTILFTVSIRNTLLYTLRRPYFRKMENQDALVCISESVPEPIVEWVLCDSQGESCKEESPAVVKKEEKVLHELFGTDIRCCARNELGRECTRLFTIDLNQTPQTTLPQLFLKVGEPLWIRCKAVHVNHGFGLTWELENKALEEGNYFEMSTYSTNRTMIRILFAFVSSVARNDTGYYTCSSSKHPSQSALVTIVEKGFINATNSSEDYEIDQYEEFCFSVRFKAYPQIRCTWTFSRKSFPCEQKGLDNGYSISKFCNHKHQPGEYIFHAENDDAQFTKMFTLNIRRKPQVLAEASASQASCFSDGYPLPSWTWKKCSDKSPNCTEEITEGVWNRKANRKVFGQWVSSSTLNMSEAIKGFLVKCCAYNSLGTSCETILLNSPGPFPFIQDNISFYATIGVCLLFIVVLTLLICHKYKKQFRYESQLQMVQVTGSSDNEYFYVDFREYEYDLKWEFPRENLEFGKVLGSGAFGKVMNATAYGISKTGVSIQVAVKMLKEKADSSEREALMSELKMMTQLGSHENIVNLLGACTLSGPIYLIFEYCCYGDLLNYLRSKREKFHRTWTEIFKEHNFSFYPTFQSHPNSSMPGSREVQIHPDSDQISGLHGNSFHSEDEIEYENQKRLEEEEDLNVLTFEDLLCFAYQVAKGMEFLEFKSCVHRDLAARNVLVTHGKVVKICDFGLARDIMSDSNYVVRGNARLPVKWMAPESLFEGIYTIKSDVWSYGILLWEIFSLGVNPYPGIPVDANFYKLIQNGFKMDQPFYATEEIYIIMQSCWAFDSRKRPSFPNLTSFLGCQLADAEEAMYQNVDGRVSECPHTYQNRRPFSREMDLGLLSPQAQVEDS

Row | SMILES | pKd (FLT3 kinase; competition binding assay) | pKd (KIT kinase; competition binding assay) | pKd (FLT3 kinase; competition binding) | pKd (KIT kinase; competition binding)
1 | COc1cc2ncc(-c3ccc(CC(=O)Nc4cc(C5(C(F)(F)F)CC5)n[nH]4)c(F)c3)nc2cc1OC [Example 180, 2-[4-(6,7-dimethoxyquinoxalin-2-yl)-2-fluoro-phenyl]-N-[3-[1-(trifluoromethyl)cyclo-propyl]-1H-pyrazol-5-yl]acetamide] | > 8.30 | > 8.30 |  | 
2 | COc1cc2ncc(-c3ccc(CC(=O)Nc4cc(C(C)(C)C(F)(F)F)nn4C)c(F)c3)nc2cc1OC [Example 181, 2-[4-(6,7-dimethoxyquinoxalin-2-yl)-2-fluoro-phenyl]-N-[2-methyl-5-(2,2,2-trifluoro-1,1-dimethyl-ethyl)pyrazol-3-yl]acetamide] | > 8.30 | > 8.30 |  | 
3 | COc1cc2ncc(-c3ccc(CC(=O)Nc4cc(C(C)(C)C(F)(F)F)n[nH]4)c(F)c3)nc2cc1OC [Example 182, 2-[4-(6,7-dimethoxyquinoxalin-2-yl)-2-fluoro-phenyl]-N-[3-(2,2,2-trifluoro-1,1-dimethyl-ethyl)-1H-pyrazol-5-yl]acetamide] | > 8.30 | > 8.30 |  | 
4 | COc1cc2nc(-c3ccc(CC(=O)Nc4cc(C5(C(F)(F)F)CC5)on4)c(F)c3)cnc2cc1OCC#N [Example 183, 2-[4-[6-(cyanomethoxy)-7-methoxy-quinoxalin-2-yl]-2-fluoro-phenyl]-N-[5-[1-(trifluoromethyl)cyclo-propyl]isoxazol-3-yl]acetamide] | > 8.30 | > 8.30 |  | 
5 | COc1cc2ncc(-c3ccc(CC(=O)Nc4cc(C(C)(C)C(F)(F)F)on4)c(F)c3)nc2cc1O [Example 184, 2-[2-fluoro-4-(7-hydroxy-6-methoxy-quinoxalin-2-yl)phenyl]-N-[5-(2,2,2-trifluoro-1,1-dimethyl-ethyl)isoxazol-3-yl]acetamide] | > 8.30 | > 8.30 |  | 
6 | COc1cc2nc(-c3ccc(CC(=O)Nc4cc(C5(C(F)(F)F)CC5)on4)c(F)c3)cnc2cc1OCCn1cncn1 [Example 185, 2-[2-fluoro-4-[7-methoxy-6-[2-(1,2,4-triazol-1-yl)ethoxy]quinoxalin-2-yl]phenyl]-N-[5-[1-(trifluoro-methyl)cyclopropyl]isoxazol-3-yl]acetamide] |  |  | > 8.30 | > 8.30
7 | COc1cc2nc(-c3ccc(CC(=O)Nc4cc(C5(C(F)(F)F)CC5)on4)c(F)c3)cnc2cc1OCC(=O)N(C)C [Example 186, 2-[4-[6-[2-(dimethylamino)-2-oxo-ethoxy]-7-methoxy-quinoxalin-2-yl]-2-fluoro-phenyl]-N-[5-[1-(trifluoro-methyl)cyclopropyl]isoxazol-3-yl]acetamide] |  |  | > 8.30 | > 8.30
8 | COc1cc2ncc(-c3ccc(CC(=O)Nc4cc(C(C)(C)C(F)(F)F)on4)c(F)c3)nc2cc1OCCN1CCOCC1 [Example 187, 2-[2-fluoro-4-[6-methoxy-7-(2-morpholino-ethoxy)quinoxalin-2-yl]phenyl]-N-[5-(2,2,2-trifluoro-1,1-dimethyl-ethyl)isoxazol-3-yl]acetamide] |  |  | > 8.30 | > 8.30
9 | COCCOc1cc2cc(-c3ccc(CC(=O)Nc4cc(C5(C(F)(F)F)CC5)on4)c(F)c3)cnc2cc1OC [Example 188, 2-[2-fluoro-4-[7-methoxy-6-(2-methoxyethoxy)-3-quinolyl]phenyl]-N-[5-[1-(trifluoromethyl)cyclo-propyl]isoxazol-3-yl]acetamide] |  |  | > 8.30 | > 8.30
10 | COc1cc2ncc(-c3ccc(CC(=O)Nc4cc(C(C)(C)C(F)(F)F)on4)c(F)c3)cc2cc1OCCN1CCOCC1 [Example 189, 2-[2-fluoro-4-[7-methoxy-6-(2-morpholinoethoxy)-3-quinolyl]phenyl]-N-[5-(2,2,2-trifluoro-1,1-dimethyl-ethyl)isoxazol-3-yl]acetamide] |  |  | > 8.30 | > 8.30
11 | COc1cc2ncc(-c3ccc(CC(=O)Nc4cc(C5(C(F)(F)F)CC5)on4)c(F)c3)cc2cc1OCCN1CCOCC1 [Example 190, 2-[2-fluoro-4-[7-methoxy-6-(2-morpholinoethoxy)-3-quinolyl]phenyl]-N-[5-[1-(trifluoromethyl)cyclo-propyl]isoxazol-3-yl]acetamide] |  |  | > 8.30 | > 8.30
12 | COc1cc2ncc(-c3ccc(CC(=O)Nc4cc(C(C)(C)C(F)(F)F)on4)c(F)c3)nc2cc1OCCN1CC[C@H](O)C1 [Example 191, 2-[2-fluoro-4-[7-[2-[(3S)-3-hydroxypyrrolidin-1-yl]ethoxy]-6-methoxy-quinoxalin-2-yl]phenyl]-N-[5-(2,2,2-trifluoro-1,1-dimethyl-ethyl)isoxazol-3-yl]acetamide] |  |  | > 8.30 | > 8.30
13 | COc1cc2ncc(-c3ccc(CC(=O)Nc4cc(C5(C(F)(F)F)CC5)on4)c(F)c3)cc2cc1OCCN [Example 192, 2-[4-[6-(2-aminoethoxy)-7-methoxy-3-quinolyl]-2-fluoro-phenyl]-N-[5-[1-(trifluoromethyl)cyclo-propyl]isoxazol-3-yl]acetamide] |  |  | > 8.30 | > 8.30
14 | COc1cc2ncc(-c3ccc(CC(=O)Nc4cc(C5(C(F)(F)F)CC5)on4)c(F)c3)cc2cc1OCCNC(C)=O [Example 193, 2-[4-[6-(2-acetamidoethoxy)-7-methoxy-3-quinolyl]-2-fluoro-phenyl]-N-[5-[1-(trifluoromethyl)cyclo-propyl]isoxazol-3-yl]acetamide] |  |  | > 8.30 | > 8.30
15 | COc1cc2ncc(-c3ccc(CC(=O)Nc4cc5n(n4)CCC5(C)C)c(F)c3)nc2cc1OC [Example 194, 2-[4-(6,7-dimethoxyquinoxalin-2-yl)-2-fluoro-phenyl]-N-(4,4-dimethyl-5,6-dihydropyrrolo[1,2-b]pyrazol-2-yl)acetamide] |  |  | > 8.30 | > 8.30
16 | COc1cc2nc(-c3ccc(CC(=O)Nc4cc(C5(C(F)(F)F)CC5)on4)c(F)c3)cnc2cc1OCCCO [Example 195, 2-[2-fluoro-4-[6-(3-hydroxypropoxy)-7-methoxy-quinoxalin-2-yl]phenyl]-N-[5-[1-(trifluoromethyl)cyclo-propyl]isoxazol-3-yl]acetamide] |  |  | > 8.30 | > 8.30
17 | CNCCOc1cc2nc(-c3ccc(CC(=O)Nc4cc(C(C)(C)C(F)(F)F)on4)c(F)c3)cnc2cc1OC [Example 196, 2-[2-fluoro-4-[6-methoxy-7-[2-(methyl-amino)ethoxy]quinoxalin-2-yl]phenyl]-N-[5-(2,2,2-trifluoro-1,1-dimethyl-ethyl)isoxazol-3-yl]acetamide] |  |  | > 8.30 | > 8.30
18 | COc1cc2cc(-c3ccc(CC(=O)Nc4cc(C(C)(C)C(F)(F)F)on4)c(F)c3)cnc2cc1OCCN1CCOCC1 [Example 197, 2-[2-fluoro-4-[6-methoxy-7-(2-morpholinoethoxy)-3-quinolyl]phenyl]-N-[5-(2,2,2-trifluoro-1,1-dimethyl-ethyl)isoxazol-3-yl]acetamide] |  |  | > 8.30 | > 8.30
19 | COc1cc2ncc(-c3ccc(CC(=O)Nc4cc(C(C)(C)C(F)(F)F)on4)c(F)c3)nc2cc1OCCN(C)C(C)=O [Example 198, 2-[4-[7-[2-[acetyl(methyl)amino]ethoxy]-6-methoxy-quinoxalin-2-yl]-2-fluoro-phenyl]-N-[5-(2,2,2-trifluoro-1,1-dimethyl-ethyl)isoxazol-3-yl]acetamide] |  |  | > 8.30 | > 8.30
20 | COc1cc2cc(-c3ccc(CC(=O)Nc4cc(C(C)(C)C(F)(F)F)on4)c(F)c3)cnc2cc1OCCN1CC[C@@H](O)C1 [Example 199, 2-[2-fluoro-4-[7-[2-[(3R)-3-hydroxypyrrolidin-1-yl]ethoxy]-6-methoxy-3-quinolyl]phenyl]-N-[5-(2,2,2-trifluoro-1,1-dimethyl-ethyl)isoxazol-3-yl]acetamide] |  |  | > 8.30 | > 8.30
21 | COc1cc2cc(-c3ccc(CC(=O)Nc4cc(C(C)(C)C(F)(F)F)on4)c(F)c3)cnc2cc1OCCN(C)CCO [Example 200, 2-[2-fluoro-4-[7-[2-[2-hydroxy-ethyl(methyl)amino]ethoxy]-6-methoxy-3-quinolyl]phenyl]-N-[5-(2,2,2-trifluoro-1,1-dimethyl-ethyl)isoxazol-3-yl]acetamide] |  |  | > 8.30 | > 8.30
22 | COc1cc2cc(-c3ccc(CC(=O)Nc4cc(C(C)(C)C(F)(F)F)on4)c(F)c3)cnc2cc1OCCNCCO [Example 201, 2-[2-fluoro-4-[7-[2-(2-hydroxyethylamino)ethoxy]-6-methoxy-3-quinolyl]phenyl]-N-[5-(2,2,2-trifluoro-1,1-dimethyl-ethyl)isoxazol-3-yl]acetamide] |  |  | > 8.30 | > 8.30
23 | COc1cc2ncc(-c3ccc(CC(=O)Nc4cc(C5(C(F)(F)F)CC5)on4)c(F)c3)nc2cc1OC[C@@H](C)O [Example 202, 2-[2-fluoro-4-[7-[(2R)-2-hydroxypropoxy]-6-methoxy-quinoxalin-2-yl]phenyl]-N-[5-[1-(trifluoromethyl)cyclo-propyl]isoxazol-3-yl]acetamide] |  |  | > 8.30 | > 8.30
24 | COc1cc2ncc(-c3ccc(CC(=O)Nc4cc(C(C)(C)C(F)(F)F)on4)c(F)c3)nc2cc1OCCCN1CCOCC1 [Example 203, 2-[2-fluoro-4-[6-methoxy-7-(3-morpholino-propoxy)quinoxalin-2-yl]phenyl]-N-[5-(2,2,2-trifluoro-1,1-dimethyl-ethyl)isoxazol-3-yl]acetamide] |  |  | > 8.30 | > 8.30
25 | COc1cc2ncc(-c3ccc(CC(=O)Nc4cc(C(C)(C)C(F)(F)F)on4)c(F)c3)cc2cc1OCCN [Example 204, 2-[4-[6-(2-aminoethoxy)-7-methoxy-3-quinolyl]-2-fluoro-phenyl]-N-[5-(2,2,2-trifluoro-1,1-dimethyl-ethyl)isoxazol-3-yl]acetamide] |  |  | > 8.30 | > 8.30
